This note sets out measurements from patent US20210292347A1, “DIHETEROCYCLIC TRIAZINONE NUCLEOSIDE ANALOGS AND THEIR USE FOR MEDICATION” (priority 2020, published 2021).

In this experiment the test system is mice sarcoma S180. The experiment is described as follows: Growth inhibition of S180 sarcoma in mice. Type of experiment: in vivo, Kunming healthy mice. To be noted: for in-vivo anti-tumor efficacy, statistical significance (in words): S180 sarcoma in mice, doses and routes of Table 3.
The mark [1] stands for this setting: Mus musculus, S-180, mice, ip, 200 mg/kg, read-out: Inhibition rate (%) S180 sarcoma.
Setting [2] is: Mus musculus, S-180, mice, ip, 100 mg/kg, read-out: Inhibition rate (%) S180 sarcoma.
Where [3] appears, read: Mus musculus, S-180, mice, iv, read-out: Inhibition rate (%) S180 sarcoma.

Take “2-(3,4-dihydroxy-5-(hydroxymethyl)tetrahydrofuran-2-yl)-7-hydroxy-5-propyl-2,7-dihydro-1H-pyrazolo[4,3-d][1,2,3]triazin-1-one [Example 14]”: the “in-vivo anti-tumor efficacy, statistical significance (in words)” value was “statistically significant”. For the same compound, the “Inhibition rate (%) S180 sarcoma” value (mice, iv, 12.5 mg/kg) was “++ (++ represent of Inhibition rate % <40)”. `CN(C)CCC(=O)Nc1nn(O)c2c(=O)n(C3OC(CO)C(O)C3O)nnc12` (stereo not shown) [Example 16, N-(3-(3,4-dihydroxy-5-(hydroxymethyl)tetrahydrofuran-2-yl)-5-hydroxy-4-oxo-4,5-dihydro-3H-pyrazolo[4,3-d][1,2,3]triazin-7-yl)-3-(dimethylamino) propanamide]: the “Inhibition rate (%) S180 sarcoma” value (mice, ip, 100 mg/kg) is given as “+ (+ represent of Inhibition rate % <20)”. `N#Cc1nn(O)c2c(=O)n(C3OC(CO)C(O)C3O)nnc12` (stereo not shown) [Example 17, 3-(3,4-dihydroxy-5-(hydroxymethyl)tetrahydrofuran-2-yl)-5-hydroxy-4-oxo-4,5-dihydro-3H-pyrazolo [4,3-d][1,2,3]triazine-7-carbonitrile]: the “in-vivo anti-tumor efficacy, statistical significance (in words)” value is recorded as “statistically significant”. Besides, where the note is “Mus musculus, S-180, mice, iv, 25 mg/kg, read-out: Inhibition rate (%) S180 sarcoma”, the inhibition in vivo at 25 mg/kg was less than 40%.

`O=c1c2c(nnn1C1OC(CO)C(O)C1O)c(N1CCCCC1)nn2O` (stereo not shown) [Example 18, 3-(3,4-dihydroxy-5-(hydroxymethyl)tetrahydrofuran-2-yl)-5-hydroxy-7-(piperidin-1-yl)-3H-pyrazolo [4,3-d][1,2,3]triazin-4(5H)-one]: the inhibition in vivo at 200 mg/kg under setting [1] was less than 20%. On the same count and under the same terms, to `COc1ccc(C(=O)Nc2nn(O)c3c(=O)n(C4OC(CO)C(O)C4O)nnc23)cc1` (stereo not shown) [Example 20, N-(3-(3,4-dihydroxy-5-(hydroxymethyl)tetrahydrofuran-2-yl)-5-hydroxy-4-oxo-4,5-dihydro-3H-pyrazolo[4,3-d][1,2,3]triazin-7-yl)-4-methoxybenzamide] belongs less than 20%. With `CCOC(=O)c1nn(C)c2c(=O)n(C3OC(CO)C(O)C3O)nnc12` (stereo not shown) [Example 22, ethyl 3-(3,4-dihydroxy-5-(hydroxymethyl)tetrahydrofuran-2-yl)-5-methyl-4-oxo-4,5-dihydro-3H-pyrazolo[4,3-d][1,2,3]triazine-7-carboxylate], the “in-vivo anti-tumor efficacy, statistical significance (in words)” value is listed as “statistically significant”. The inhibition in vivo at 200 mg/kg under setting [1] is less than 40%. Consider `CCCc1nn(C)c2c(=O)n(C3OC(CO)C(O)C3O)nnc12` (stereo not shown) [Example 23, 3-(3,4-dihydroxy-5-(hydroxymethyl)tetrahydrofuran-2-yl)-5-methyl-7-propyl-3H-pyrazolo [4,3-d][1,2,3]triazin-4(5H)-one], for which the “in-vivo anti-tumor efficacy, statistical significance (in words)” value is on record as “statistically significant”. Also, the inhibition in vivo at 100 mg/kg under setting [2] is less than 40%. Take `Cn1nc(N)c2nnn(C3OC(CO)C(O)C3O)c(=O)c21` (stereo not shown) [Example 24, 7-amino-3-(3,4-dihydroxy-5-(hydroxymethyl)tetrahydrofuran-2-yl)-5-methyl-3H-pyrazolo [4,3-d][1,2,3]triazin-4(5H)-one]: the “in-vivo anti-tumor efficacy, statistical significance (in words)” value is “statistically significant”. Further, for the setting “Mus musculus, S-180, mice, ip, 300 mg/kg, read-out: Inhibition rate (%) S180 sarcoma”, the inhibition in vivo at 300 mg/kg is less than 40%.

Regarding `CN(C)CCC(=O)Nc1nn(C)c2c(=O)n(C3OC(CO)C(O)C3O)nnc12` (stereo not shown) [Example 25, N-(3-(3,4-dihydroxy-5-(hydroxymethyl)tetrahydrofuran-2-yl)-5-methyl-4-oxo-4,5-dihydro-3H-pyrazolo[4,3-d][1,2,3]triazin-7-yl)-3-(dimethylamino) propanamide], the “in-vivo anti-tumor efficacy, statistical significance (in words)” value is “statistically significant”. Also, the “Inhibition rate (%) S180 sarcoma” value (mice, ip, 200 mg/kg) is “++ (++ represent of Inhibition rate % <40)”. In the case of `Cn1nc(C#N)c2nnn(C3OC(CO)C(O)C3O)c(=O)c21` (stereo not shown) [Example 26, 3-(3,4-dihydroxy-5-(hydroxymethyl)tetrahydrofuran-2-yl)-5-methyl-4-oxo-4,5-dihydro-3H-pyrazolo[4,3-d][1,2,3]triazine-7-carbonitrile], the “in-vivo anti-tumor efficacy, statistical significance (in words)” value was “statistically significant”. Besides, where the note is “Mus musculus, S-180, mice, ip, 70 mg/kg, read-out: Inhibition rate (%) S180 sarcoma”, the inhibition in vivo at 70 mg/kg is less than 40%.

For `Cn1nc(N2CCCCC2)c2nnn(C3OC(CO)C(O)C3O)c(=O)c21` (stereo not shown) [Example 27, 3-(3,4-dihydroxy-5-(hydroxymethyl)tetrahydrofuran-2-yl)-5-methyl-7-(piperidin-1-yl)-3H-pyrazolo[4,3-d][1,2,3]triazin-4(5H)-one], the inhibition in vivo at 15 mg/kg under setting [3] is less than 20%. Consider `Cn1nc([N+](=O)[O-])c2nnn(C3OC(CO)C(O)C3O)c(=O)c21` (stereo not shown) [Example 28, 3-(3,4-dihydroxy-5-(hydroxymethyl)tetrahydrofuran-2-yl)-5-methyl-7-nitro-3H-pyrazolo [4,3-d][1,2,3]triazin-4(5H)-one], for which the “in-vivo anti-tumor efficacy, statistical significance (in words)” value was “statistically significant”. Further, the inhibition in vivo at 20 mg/kg (Mus musculus, S-180, mice, iv, 20 mg/kg, read-out: Inhibition rate (%) S180 sarcoma) is less than 40%. As to `COc1ccc(C(=O)Nc2nn(C)c3c(=O)n(C4OC(CO)C(O)C4O)nnc23)cc1` (stereo not shown) [Example 29, N-(3-(3,4-dihydroxy-5-(hydroxymethyl)tetrahydrofuran-2-yl)-5-methyl-4-oxo-4,5-dihydro-3H-pyrazolo[4,3-d][1,2,3]triazin-7-yl)-4-methoxybenzamide], the inhibition in vivo at 15 mg/kg under setting [3] was less than 20%. Consider `CCOC(=O)c1nn(CO)c2c(=O)n(C3OC(CO)C(O)C3O)nnc12` (stereo not shown) [Example 30, ethyl 3-(3,4-dihydroxy-5-(hydroxymethyl)tetrahydrofuran-2-yl)-5-(hydroxymethyl)-4-oxo-4,5-dihydro-3H-pyrazolo [4,3-d][1,2,3]triazine-7-carboxylate], for which the “in-vivo anti-tumor efficacy, statistical significance (in words)” value is on record as “statistically significant”. Moreover, the inhibition in vivo at 400 mg/kg (Mus musculus, S-180, mice, ip, 400 mg/kg, read-out: Inhibition rate (%) S180 sarcoma) is less than 40%. Turning to `CCCc1nn(CO)c2c(=O)n(C3OC(CO)C(O)C3O)nnc12` (stereo not shown) [Example 31, 3-(3,4-dihydroxy-5-(hydroxymethyl)tetrahydrofuran-2-yl)-5-(hydroxymethyl)-7-propyl-3H-pyrazolo[4,3-d][1,2,3]triazin-4(5H)-one], the “in-vivo anti-tumor efficacy, statistical significance (in words)” value is reported as “statistically significant”. The inhibition in vivo at 100 mg/kg under setting [2] was less than 40%. For the compound `Nc1nn(CO)c2c(=O)n(C3OC(CO)C(O)C3O)nnc12` (stereo not shown) [Example 32, 7-amino-3-(3,4-dihydroxy-5-(hydroxymethyl)tetrahydrofuran-2-yl)-5-(hydroxymethyl)-3H-pyrazolo [4,3-d][1,2,3]triazin-4(5H)-one], the “in-vivo anti-tumor efficacy, statistical significance (in words)” value is on record as “statistically significant”. In addition, the inhibition in vivo at 30 mg/kg (Mus musculus, S-180, mice, iv, 30 mg/kg, read-out: Inhibition rate (%) S180 sarcoma) was less than 40%. With `O=c1c2c(nnn1C1OC(CO)C(O)C1O)c([N+](=O)[O-])nn2CO` (stereo not shown) [Example 36, 3-(3,4-dihydroxy-5-(hydroxymethyl)tetrahydrofuran-2-yl)-5-(hydroxymethyl)-7-nitro-3H-pyrazolo [4,3-d][1,2,3]triazin-4(5H)-one], the “in-vivo anti-tumor efficacy, statistical significance (in words)” value is “statistically significant”. For the same compound, under setting [1], the inhibition in vivo at 200 mg/kg is less than 40%. Turning to `CCCc1nn(C2CC2)c2c(=O)n(C3OC(CO)C(O)C3O)nnc12` (stereo not shown) [Example 40, 5-cyclopropyl-3-(3,4-dihydroxy-5-(hydroxymethyl)tetrahydrofuran-2-yl)-7-propyl-3H-pyrazolo[4,3-d][1,2,3]triazin-4(5H)-one], the inhibition in vivo at 50 mg/kg under setting [3] was less than 20%.

For `CCOC(=O)c1nn(CC(N)=O)c2c(=O)n(C3OC(CO)C(O)C3O)nnc12` (stereo not shown) [Example 48, ethyl 5-(2-amino-2-oxoethyl)-3-(3,4-dihydroxy-5-(hydroxymethyl)tetrahydrofuran-2-yl)-4-oxo-4,5-dihydro-3H-pyrazolo[4,3-d][1,2,3]triazine-7-carboxylate], the “in-vivo anti-tumor efficacy, statistical significance (in words)” value was “statistically significant”. Also, under setting [3], the inhibition in vivo at 50 mg/kg was less than 40%. As for `CCCc1nn(CC(N)=O)c2c(=O)n(C3OC(CO)C(O)C3O)nnc12` (stereo not shown) [Example 49, 2-(3-(3,4-dihydroxy-5-(hydroxymethyl)tetrahydrofuran-2-yl)-4-oxo-7-propyl-3H-pyrazolo [4,3-d][1,2,3]triazin-5(4H)-yl)acetamide], the “in-vivo anti-tumor efficacy, statistical significance (in words)” value is “statistically significant”. For the same compound, under setting [2], the inhibition in vivo at 100 mg/kg is less than 40%.

Consider `NC(=O)Cn1nc(N)c2nnn(C3OC(CO)C(O)C3O)c(=O)c21` (stereo not shown) [Example 50, 2-(7-amino-3-(3,4-dihydroxy-5-(hydroxymethyl)tetrahydrofuran-2-yl)-4-oxo-3H-pyrazolo[4,3-d][1,2,3]triazin-5(4H)-yl)acetamide], for which the “in-vivo anti-tumor efficacy, statistical significance (in words)” value is recorded as “statistically significant”. The inhibition in vivo at 15 mg/kg under setting [3] is less than 40%. `NC(=O)Cn1nc([N+](=O)[O-])c2nnn(C3OC(CO)C(O)C3O)c(=O)c21` (stereo not shown) [Example 54, 2-(3-(3,4-dihydroxy-5-(hydroxymethyl)tetrahydrofuran-2-yl)-7-nitro-4-oxo-3H-pyrazolo [4,3-d][1,2,3]triazin-5(4H)-yl)acetamide]: the “in-vivo anti-tumor efficacy, statistical significance (in words)” value was “statistically significant”. Under “Mus musculus, S-180, mice, ip, 150 mg/kg, read-out: Inhibition rate (%) S180 sarcoma”, the inhibition in vivo at 150 mg/kg was less than 40%.

Turning to `CCCc1nn(C(N)=O)c2c(=O)n(C3OC(CO)C(O)C3O)nnc12` (stereo not shown) [Example 55, 3-(3,4-dihydroxy-5-(hydroxymethyl)tetrahydrofuran-2-yl)-4-oxo-7-propyl-3H-pyrazolo [4,3-d][1,2,3]triazine-5(4H)-carboxamide], the “in-vivo anti-tumor efficacy, statistical significance (in words)” value is given as “statistically significant”. For the same compound, under setting [2], the inhibition in vivo at 100 mg/kg is less than 40%.
